The results in this text go back to article doi:10.1101/2025.02.17.638454, “Synergistic RAS-MAPK and AKT Activation in MYC-Driven Tumors via Adjacent PVT1 Rearrangements” (bioRxiv, 2025).

No end group written: not given here.

In data set [1] the test system is MYC. Description: Western blot of MYC in D458. The format is cell-based, human. Here is the method:
For whole-cell lysate, the cell pellet was resuspended in RIPA buffer (Cell Signaling Technologies, Danvers, MA) supplemented with a protease inhibitor cocktail (Cell Signaling Technologies) and incubated on ice for 20 minutes. The lysate was then centrifuged at 14,000 revolutions/minute for 10 minutes at 4°C, and the supernatant was harvested. Protein concentration was quantified by BCA Protein Assay Kit (Thermo Fisher Scientific) as per kit protocol. Next, 20 μg of whole-cell lysate was electrophoresed on a 4%–20% gradient polyacrylamide gel with SDS (Bio-Rad, Hercules, CA) and electroblotted onto polyvinylidene difluoride membranes (Bio-Rad). Membranes were blocked in Tris-buffered saline with 5% nonfat milk and 0.1% Tween and probed with antibodies. Bound proteins were detected with horseradish-peroxidase–conjugated secondary antibodies (Cell Signaling Technologies) and SuperSignal West Femto (Thermo Fisher Scientific). Antibodies used were anti-c-MYC (Cell Signaling Technology, 5605, anti-Phospho-c-MYC (Ser62) (Cell Signaling Technology, 13748), anti-β ACTIN (Cell Signaling Technology, 8457), anti-Phospho-p44/42 (Erk1/2) (Thr202/Tyr204) (Cell Signaling Technology, 4370), anti-p44/42 (Erk1/2) (Cell Signaling Technology, 4695), anti-Phospho-MEK1/2 (Ser217/221) (Cell Signaling Technology, 9154), anti-MEK1/2 (Cell Signaling Technology, 9122), anti-Phospho-p90RSK (Ser380) (Cell Signaling Technology, 11989), anti-RSK1/RSK2/RSK3 (Cell Signaling Technology, 9355), Anti-Rabbit IgG, HRP-linked Antibody (Cell Signaling Technology, 7074). Anti-FFX (Firefox) monoclonal antibodies were custom produced by Proteintech using FFX residues 13–104 as epitope.
The HNB ORF and eGFP (control) were cloned in an inducible lentivirus expression, TRE-gateway plasmid (pLIX_403, Addgene, #41395). Lentivirus was produced in HEK293T cells using the protocol described above. D458, NCI-H1792 and COLO 320DM cells were transfected with inducible HNB lentivirus and selected with 1 μg/mL concentration of Puromycin. Selected cells were seeded at a concentration of 4 × 10^5 cells per well. After 24 hours of seeding, the cells were treated with 1 μg/mL Doxycycline for 48 hours. The cells were then lysed using RIPA buffer and 1X protease inhibitor cocktail. The protein lysates were collected and quantified using the previously described protocol. 20 μg of whole-cell lysate was electrophoresed on a 4%–20% gradient polyacrylamide gel with SDS (Bio-Rad, Hercules, CA) and electroblotted onto polyvinylidene difluoride membranes (Bio-Rad). […] Bound proteins were detected with horseradish-peroxidase–conjugated secondary antibodies (Cell Signaling Technologies) and SuperSignal West Femto (Thermo Fisher Scientific). […]
On the technique in general: Immunoblotting shows a protein as a band on a membrane.

The test system of data set [2] is MYC. Description: Western blot of MYC in COLO-320DM. The format is cell-based, human. Particulars: COLO320DM. Here is the method:
For whole-cell lysate, the cell pellet was resuspended in RIPA buffer (Cell Signaling Technologies, Danvers, MA) supplemented with a protease inhibitor cocktail (Cell Signaling Technologies) and incubated on ice for 20 minutes. The lysate was then centrifuged at 14,000 revolutions/minute for 10 minutes at 4°C, and the supernatant was harvested. Protein concentration was quantified by BCA Protein Assay Kit (Thermo Fisher Scientific) as per kit protocol. Next, 20 μg of whole-cell lysate was electrophoresed on a 4%–20% gradient polyacrylamide gel with SDS (Bio-Rad, Hercules, CA) and electroblotted onto polyvinylidene difluoride membranes (Bio-Rad). Membranes were blocked in Tris-buffered saline with 5% nonfat milk and 0.1% Tween and probed with antibodies. Bound proteins were detected with horseradish-peroxidase–conjugated secondary antibodies (Cell Signaling Technologies) and SuperSignal West Femto (Thermo Fisher Scientific). […]
The HNB ORF and eGFP (control) were cloned in an inducible lentivirus expression, TRE-gateway plasmid (pLIX_403, Addgene, #41395). […] The protein lysates were collected and quantified using the previously described protocol. […] Bound proteins were detected with horseradish-peroxidase–conjugated secondary antibodies (Cell Signaling Technologies) and SuperSignal West Femto (Thermo Fisher Scientific). […]

A further data set relates to COLO-320DM cells. Description: Proliferation assay COLO-320DM. Format: cell-based, human. As to conditions: COLO320DM.
A further data set deals with HNB. Description: ITC of HNB into assay buffer (self-interaction, baseline control). Format: binding. Particulars: 500 µM HNB into ITC assay buffer, 25°C. Here is the method:
Isothermal titration calorimetry (ITC) measures the change in temperature when two or more biomolecules bind to each other in a solution. The assay provides the binding affinity of ligands to proteins and the entropy or enthalpy of the reaction. Recombinant KRAS protein (#ab156968, Abcam) was dialyzed into the ITC assay buffer (20mM Tris pH 8.0, 100mM NaCl, 5mM Beta-mercaptoethanol) and concentrated to about 100 μM. During ITC titration twenty 6 μl injections (with intervals of 150 seconds) of 500μM HNB were made into the ITC cell containing 93 μM KRAS. Titration of 500μM HNB into the ITC assay buffer under the same conditions was used as the baseline control. ITC experiments were performed using Affinity ITC instrument (TA Instruments) at 25°C. The data was fitted and analyzed using NanoAnalyze software provided by TA Instruments. […]
bioRxiv preprint doi: https://doi.org/10.1101/2025.02.17.638454; this version posted February 22, 2025. The copyright holder for this preprint (which was not certified by peer review) is the author/funder, who has granted bioRxiv a license to display the preprint in perpetuity. It is made available under aCC-BY 4.0 International license. […]
A general note: ITC needs no label: the signal is the heat of the interaction.

For another data set, the system named is D458 cells. Description: Proliferation assay D458. Format: cell-based, human.

In the case of MKTQLGAVKGFLHV [HNB], the MYC protein level entry is “significantly reduced MYC expression at the mRNA as well as the protein levels” in the data set on MYC [1] (D458, induction of HNB (-/+ Dox)) and “significantly reduced MYC expression at the mRNA as well as the protein levels” with MYC [2] (induction of HNB (-/+ Dox)). In addition, the cellular proliferation result with COLO-320DM cells (induction of HNB (-/+ Dox), P=0.0002) is recorded as “significantly reduced cellular proliferation”; in the data set with D458 cells (D458, induction of HNB or HNB mutant (+/- Dox)), “significantly reduced cellular proliferation”. For the same substance, the HNB self-interaction entry in the data set on HNB is on record as “not detected”.

Take “si.CircPVT1: siRNA targeting the junction sequence of CircPVT1, 5’-UGGGCUUGAGGCCUGAUCUUU-3’ (other strand not given here)”: the MYC protein result is given as “significant reduction of MYC protein” in the data set on MYC [1] (D458, si.CircPVT1 vs si.Ctrl, n=3, unpaired t test) and “significant reduction of MYC protein” in the data set with MYC [2] (si.CircPVT1 vs si.Ctrl, n=3, unpaired t test, <0.0001). Besides, the cellular proliferation result is given as “reduced cellular proliferation” in the data set on COLO-320DM cells (si.CircPVT1 vs si.Ctrl, n=3, two-way ANOVA, P<0.0001) and “reduced cellular proliferation” with D458 cells (D458, transfection with si.CircPVT1 vs si.Ctrl, n=3, two-way ANOVA).
